Experimental data published in ChEMBL document CHEMBL1158181, “Studies of trypanocidal (inhibitory) power of naphthoquinones: evaluation of quantum chemical molecular descriptors for structure-activity relationships” (Eur J Med Chem, 2008).

Key:
[1] = Oxidation of dithiothreitol assessed as oxygen consumption at 50 uM; assay type: physicochemical
[2] = Oxidation of dihydrolipoamide assessed as oxygen consumption at 50 uM; assay type: physicochemical
Leptomonas seymouri = experiment: Antitrypanosomal activity against Leptomonas seymouri; assay type: functional, organism-based
Crithidia fasciculata = experiment: Antitrypanosomal activity against Crithidia fasciculata; assay type: functional, organism-based

Row | Structure (SMILES) | Activity [1] [µM/min] | Activity [2] [µM/min] | IC50 (Leptomonas seymouri) [µM] | IC50 (Crithidia fasciculata) [µM]
1 | CC1(C)CCC2=C(O1)c1cc(Cl)ccc1C(=O)C2=O | 470 | 879 | 0.4 | 0.8
2 | CC1=Cc2c(C(C)C)ccc(C)c2C(=O)C1=O |  | 434 | 4 | 6
3 | CC1=C2OCC(C)c3ccc(C)c(c32)C(=O)C1=O (centres undefined) [MANSONONE E] | 66 | 276 | 0.4 | 0.6
4 | CC1(C)CCC2=C(O1)c1ccccc1C(=O)C2=O [LAPACHONE] | 238 | 808 | 0.4 | 

Continued, in another order:

Row | Activity [1] [µM/min] | Activity [2] [µM/min] | Structure (SMILES) | IC50 (Leptomonas seymouri) [µM] | IC50 (Crithidia fasciculata) [µM]
5 | 37 | 26 | CC1=CC2=C(C(=O)C1=O)C(C)CCC2C(C)C (centres undefined) [MANSONONE A] | 8.5 | 15
6 | 1 | 7 | CC1(C)CCC2=C(O1)C(=O)c1ccccc1C2=O [ALPHA-LAPACHONE] | 4.1 | 27
7 | 315 | 990 | CC1(c2ccccc2)CCC2=C(O1)c1ccccc1C(=O)C2=O (centres undefined) | 0.7 | 0.7
8 | 208 | 733 | CCC1(C)CCC2=C(O1)c1ccccc1C(=O)C2=O (centres undefined) | 0.3 | 0.8
9 | 14 | 58 | CC1=COC2=C(C)C(=O)C(=O)c3c(C)ccc1c32 [MANSONONE F] | 0.1 | 0.3
